Test results from patent US20040019082A1, “Reversible infertility in male mice following oral administration of alkylated imino sugars: a non-hormonal approach to male contraception” (United Therapeutics Corporation, priority 2002, published 2004).
Where two headings read alike, the source gives them in different places.

Tests used:
[1] = system: female mice of strain 129; experiment: Fertility of treated female mice of strain 129; format: in vivo, mouse; settings: 2400 mg/kg day for 12 weeks, 15 week-old females, caged with untreated males
Protocol: NB-DNJ was administered at 2400 mg/kg day for 12 weeks to 15 week-old female mice of strain 129. After this, the drug was withdrawn and the females were caged with untreated males of strain 129. […] The mice in this experiment were heterozygous for a disruption in the gene encoding ceramide galactosyltransferase. These mice are phenotypically indistinguishable from wild-type 129 mice and reproduce normally (Coetzee et al., (1996), Cell, 86:209-219).

epididymal spermatozoa [2] = experiment: Electron microscopy of epididymal spermatozoa; format: in vivo, mouse
Protocol: For scanning electron microscopy, dried smears of murine spermatozoa were prepared as described above. Cells were fixed for 20 min in 4% paraformaldehyde in PBS, transferred to 70, 80 and 95% ethanol, critical-point dried in a Polaron CPD7501 instrument, gold-coated using a Nanotech Semprep2, and examined in a Hitachi S800 FEG-SEM at 3 kV. For transmission electronmicroscopy epididymal spermatozoa were collected in 1 mg/ml cold water soluble polyvinylalcohol in PBS, and spun for 10 min. at 600×g. Pelleted cells were fixed overnight at 4° C. with 1% glutaraldehyde, 0.2% picric acid in 0.2 M cacodylic acid pH 7.4, washed once in 0.1 M cacodylic acid pH 7.4, and stored in 70% ethanol. Cells were postfixed with 2% osmium letroxide, embedded in araldite, sectioned at 70 nm, stained with uranyl acetate/lead citrate, and examined with a JEOL JEM-100CX microscope at 80 kV.

[3] = humans; cited from earlier work
[4] = system: ganglioside GM1 on the surface of mouse splenocytes; settings: cited from earlier work
epididymal spermatozoa [5] = experiment: Computer-assisted sperm motility analysis; format: in vivo, mouse; settings: mean ± SD, n ≧ 3
Protocol: Motility analysis. Mice were terminated by asphyxiation in CO2 and cervical dislocation, and caudae epididymides were removed with vasa deferentia. Spermatozoa were collected in pre-warmed M2 medium (Sigma) by stripping the vasa deferentia and by applying mild pressure to the caudae epididymides; the cells were incubated at 37° C. for 1 hour, and videographed using a Leica DM IRB microscope fitted with a JVC TK-1281 camera. Computer-assisted sperm motility analysis was performed using a Hobson Sperm Tracker (Hobson Vision Ltd., UK) at 50 frames per second. Motility parameters of each sperm sample were measured in triplicate, collecting data from 200 sperm tracks per determination.

epididymal sperm = experiment: Epididymal sperm count; format: in vivo, mouse; settings: at loss of fertility caused by the drug
seminiferous tubules = experiment: Testis histology; format: in vivo, mouse; settings: 50 mg/kg/day (FIG. 4B)
From the text: Histology and Scanning electronmicroscopy—Testes were obtained from mice perfused with 4% paraformaldehyde, 1% gluteraldehyde, kept in the fixative for two days, and transferred to 70% ethanol. Tissues were post-fixed with 2% osmium tetroxide, embedded in araldite, sectioned at 1 μm, and stained with Toluidine Blue. Sections were examined with a Zeiss Axioskop II, and images were acquired with an Axiocam camera, operated by Axiovision 3.0 software.

female C57BL/6 mice = experiment: Mating assay, fertility of treated female mice; format: in vivo, mouse; settings: 1200 mg/kg/day for five weeks, four-day mating with untreated males, n=5
Protocol: Mating assays—To assess the fertility of male mice that were fed on a diet containing an iminosugar, a mating assay was used: typically six week old male C57BL/6 mice in groups of three were administered diet containing compound for five weeks (unless otherwise specified), after which each of them was caged with four untreated female C57BL/6 mice, and provided with standard pelleted chow. Females were at least 11 weeks old, and age-matched in each experiment. The male was removed from the females after 7 or 9 days, depending on the experiment; the females were monitored for vaginal mucous plugs, pregnancies, and, if any, litter sizes. To study any effect on female fertility six-week-old female C57BL/6 mice were treated with NB-DNJ for five weeks, after which each of them was caged with a non-treated age-matched male for four days.
Following a four-day mating period with untreated males, 100% of treated (n=5) as well as of non-treated females (n=4) became pregnant; these mice had 6.2±2.7 and 7.8±1.0 pups per litter, respectively.

In the case of `CCCCN1C[C@H](O)[C@@H](O)[C@H](O)[C@H]1CO` [NB-DNJ, N-butyldeoxynojirimycin], the average litter size [1] was 6 pups, the “pregnancy after drug withdrawal” value [1] was “All females quickly became pregnant” and the “tails and mitochondria of epididymal spermatozoa” value (epididymal spermatozoa [2]; 1,200 mg/kg/day (FIG. 5)) was “induced a number of abnormalities”. For the same compound, the “acrosomal elements covering the nuclei, ultrastructural level” value (epididymal spermatozoa [2]; 1,200 mg/kg/day (FIGS. 5D-5F)) was “no typical acrosomal elements were seen”, the tolerability [3] was “well tolerated” and the “reduction of ganglioside GM1 levels” value ([4]; 600 mg/kg per day) was 10%. The “reduction of ganglioside GM1 levels” value ([4]; 2400 mg/kg per day) was 70%, the “% motile” value (epididymal spermatozoa [5]; NB-DNJ 15 mg/kg/day) was 26 ± 16% and the “VCL, curvilinear velocity” value (epididymal spermatozoa [5]; NB-DNJ 15 mg/kg/day) was 74 ± 31 μm/sec. The “VSL, straight line velocity” value (epididymal spermatozoa [5]; NB-DNJ 15 mg/kg/day) was 27 ± 9 μm/sec, the “% motile” value (epididymal spermatozoa [5]; NB-DNJ 150 mg/kg/day) was 15 ± 6% and the “VCL, curvilinear velocity” value (epididymal spermatozoa [5]; NB-DNJ 150 mg/kg/day) was 89 ± 31 μm/sec. For the same compound, the “VSL, straight line velocity” value (epididymal spermatozoa [5]; NB-DNJ 150 mg/kg/day) was 27 ± 8 μm/sec, the “% motile” value (epididymal spermatozoa [5]; NB-DNJ 1200 mg/kg/day) was 17 ± 7% and the “VCL, curvilinear velocity” value (epididymal spermatozoa [5]; NB-DNJ 1200 mg/kg/day) was 49 ± 17 μm/sec. The “VSL, straight line velocity” value (epididymal spermatozoa [5]; NB-DNJ 1200 mg/kg/day) was 18 ± 9 μm/sec, the “% motile” value (epididymal spermatozoa [5]; NB-DNJ 2400 mg/kg/day) was 9 ± 2% and the “VCL, curvilinear velocity” value (epididymal spermatozoa [5]; NB-DNJ 2400 mg/kg/day) was 28 ± 21 μm/sec. The “VSL, straight line velocity” value (epididymal spermatozoa [5]; NB-DNJ 2400 mg/kg/day) was 9 ± 5 μm/sec, the epididymal sperm count (epididymal sperm) was “not associated with a reduction” and the “morphology of nuclei of mature spermatids” value (seminiferous tubules) was “aberrant, heterogeneous morphology”. For the same compound, the “vacuolization in seminiferous tubules versus controls” value (seminiferous tubules) was “more extensive vacuolization”, the “females that became pregnant” value (female C57BL/6 mice) was 100% and the pups per litter (female C57BL/6 mice) was 6.2±2.7.
